Entries after “also recorded” stand apart in the source; their conditions may differ.
Experiments:
[1] = Description: An algorithm was developed to correlate a known oral dose of methotrexate to a jet injector dose. Table 1 illustrates the calculated correlation between oral doses and needle-assisted jet injector doses of methotrexate. The second column illustrates the precise subcutaneous dose calculated based on the algorithm, described in detail below. The third column represents the administrable dose, based on commercially available doses, closest in value to the precise calculated dose.
Based on the data set forth in table 1, a line equation of y=mx+b was developed to correlate an oral dose of methotrexate to an equivalent dose for use with a jet injector. In the present equation, illustrated by the graph shown in FIG. 1, the slope, m, was determined to be 0.6101 and a y-intercept, b, to be 2.9274. The correlation coefficient of the line, R^2, is 0.9594.

[2] = Multicenter three-way crossover study: oral vs subcutaneous (abdomen, thigh) methotrexate, blood drug levels for 24 hours and adverse events; type: in vivo, patients with adult RA
Procedure: A multicenter, three-way crossover study was conducted, wherein patients greater than or equal to 18 years old with adult RA undergoing treatment with MTX for three months or more were assigned to receive one of four dose levels of OTREXUP™ (subcutaneous methotrexate), 10 mg, 15 mg, 20 mg, and 25 mg weekly in a random sequence of three treatments: oral, subcutaneous into the abdomen and subcutaneous into the thigh. For 24 hours after the administration of each treatment, blood samples were collected to measure drug levels and injection sites were assessed.

slope, m, of line equation correlating oral dose to equivalent jet injector dose [1]: 0.6101
y-intercept, b, of line equation correlating oral dose to equivalent jet injector dose [1]: 2.9274
SMILES: CN(Cc1cnc2nc(N)nc(N)c2n1)c1ccc(C(=O)N[C@@H](CCC(=O)O)C(=O)O)cc1 [methotrexate]
plasma levels of oral dosed methotrexate, 20 mg or 25 mg doses versus 15 mg doses ([2]; oral): no greater
systemic availability of methotrexate following oral dosing ([2]; oral, 10, 15, 20, 25 mg weekly, RA patients): do not provide increased systemic availability; also recorded: plateaus at 15 mg and greater
association of higher systemic methotrexate exposure with adverse events ([2]; short term study): not associated with increases in adverse events
